This passage reports T/C results from PubChem BioAssay AID256 (DTP/NCI, 2004).

Several values for one entry are separate records, joined by “and”; a condition that tells them apart may be missing. Equal entries are not always repeated. Toxic doses and inconclusive results are not listed.

In the assay the test system is CD2F1 mice, L1210 leukemia ip, survival T/C. Description: NCI In Vivo Anticancer Drug Screen. Data for tumor model L1210 Leukemia (intraperitoneal) in CD2F1 (CDF1) mice. Particulars: higher = longer survival. The procedure, abridged:
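Mice carrying a transplanted tumor received test compound or vehicle alone. The value is the measurement in the treated group divided by that in the vehicle-treated control group.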

For the compound `COc1cccc2c1C(=O)c1c(O)c3c(c(O)c1C2=O)C[C@@](O)(/C(C)=N/NC(=O)c1ccccc1)C[C@@H]3OC1CC(N)C(O)C(C)O1` (some centres not stated), the T/C reads like this: (endpoint: mean survival time, dose: 0.5 mg/kg/injection, schedule: Q04DX003 (ip), vehicle: water) 91 % of control; (endpoint: mean survival time, dose: 0.65 mg/kg/injection, schedule: Q01DX009 (ip), vehicle: saline) 117 % of control; (endpoint: mean survival time, dose: 1.0 mg/kg/injection, schedule: Q01DX009 (ip), vehicle: water) 107 % of control; (endpoint: mean survival time, dose: 1.0 mg/kg/injection, schedule: Q04DX003 (ip), vehicle: water) 91 % of control; (endpoint: mean survival time, dose: 1.08 mg/kg/injection, schedule: Q01DX009 (ip), vehicle: saline) 120 % of control; (endpoint: mean survival time, dose: 2.0 mg/kg/injection, schedule: Q01DX009 (ip), vehicle: water) 113 % of control. Moreover, the T/C is, setting by setting: (endpoint: mean survival time, dose: 2.0 mg/kg/injection, schedule: Q04DX003 (ip), vehicle: water) 96 % of control; (endpoint: mean survival time, dose: 3.0 mg/kg/injection, schedule: Q01DX009 (ip), vehicle: saline) 150 % of control; (endpoint: mean survival time, dose: 3.0 mg/kg/injection, schedule: Q04DX003 (ip), vehicle: saline) 160 % of control; (endpoint: mean survival time, dose: 4.0 mg/kg/injection, schedule: Q01DX009 (ip), vehicle: water) 120 % of control; (endpoint: mean survival time, dose: 4.0 mg/kg/injection, schedule: Q04DX003 (ip), vehicle: water) 105 % of control; (endpoint: mean survival time, dose: 5.0 mg/kg/injection, schedule: Q04DX003 (ip), vehicle: saline) 163 % of control. In addition, the T/C (endpoint: mean survival time, dose: 8.0 mg/kg/injection, schedule: Q01DX009 (ip), vehicle: saline) was 110 % of control; the T/C (endpoint: mean survival time, dose: 8.0 mg/kg/injection, schedule: Q04DX003 (ip), vehicle: water) is 124 % of control; the T/C (endpoint: mean survival time, dose: 22.2 mg/kg/injection, schedule: Q04DX003 (ip), vehicle: saline) was 103 % of control; the T/C (endpoint: median survival time, dose: 0.13 mg/kg/injection, schedule: Q03HX008 (ip), vehicle: water) was 106 % of control; the T/C (endpoint: median survival time, dose: 0.13 mg/kg/injection, schedule: Q03HX016 (ip), vehicle: water) was 97 % of control; the T/C (endpoint: median survival time, dose: 0.13 mg/kg/injection, schedule: Q03HX024 (ip), vehicle: water) was 106 % of control. In addition, the T/C reads like this: (endpoint: median survival time, dose: 0.25 mg/kg/injection, schedule: Q03HX008 (ip), vehicle: water) 107 % of control; (endpoint: median survival time, dose: 0.25 mg/kg/injection, schedule: Q03HX016 (ip), vehicle: water) 104 % of control; (endpoint: median survival time, dose: 0.25 mg/kg/injection, schedule: Q03HX024 (ip), vehicle: water) 112 % of control; (endpoint: median survival time, dose: 0.5 mg/kg/injection, schedule: Q01DX009 (ip), vehicle: water) 105 % of control; (endpoint: median survival time, dose: 0.5 mg/kg/injection, schedule: Q01DX009 (sc), vehicle: water) 101 % of control; (endpoint: median survival time, dose: 0.5 mg/kg/injection, schedule: Q03HX008 (ip), vehicle: water) 114 % of control. The T/C was 105 % of control (endpoint: median survival time, dose: 0.5 mg/kg/injection, schedule: Q03HX016 (ip), vehicle: water); 115 % of control (endpoint: median survival time, dose: 0.5 mg/kg/injection, schedule: Q03HX024 (ip), vehicle: water); 100 % of control (endpoint: median survival time, dose: 0.5 mg/kg/injection, schedule: Q04DX003 (ip), vehicle: water); 98 % of control (endpoint: median survival time, dose: 1.0 mg/kg/injection, schedule: Q01DX001 (ip), vehicle: water); 96 % of control (endpoint: median survival time, dose: 1.0 mg/kg/injection, schedule: Q01DX001 (sc), vehicle: water); 106 % of control (endpoint: median survival time, dose: 1.0 mg/kg/injection, schedule: Q01DX009 (ip), vehicle: water). For the same compound, the T/C by setting is: (endpoint: median survival time, dose: 1.0 mg/kg/injection, schedule: Q01DX009 (sc), vehicle: water) 97 % of control; (endpoint: median survival time, dose: 1.0 mg/kg/injection, schedule: Q03HX008 (ip), vehicle: water) 118 % of control; (endpoint: median survival time, dose: 1.0 mg/kg/injection, schedule: Q03HX016 (ip), vehicle: water) 109 % of control; (endpoint: median survival time, dose: 1.0 mg/kg/injection, schedule: Q04DX003 (ip), vehicle: water) 116 % of control and 111 % of control; (endpoint: median survival time, dose: 1.0 mg/kg/injection, schedule: Q08DX002 (ip), vehicle: water) 107 % of control; (endpoint: median survival time, dose: 2.0 mg/kg/injection, schedule: Q01DX001 (ip), vehicle: water) 105 % of control. Moreover, the T/C by setting is: (endpoint: median survival time, dose: 2.0 mg/kg/injection, schedule: Q01DX001 (sc), vehicle: water) 102 % of control; (endpoint: median survival time, dose: 2.0 mg/kg/injection, schedule: Q01DX009 (ip), vehicle: water) 116 % of control; (endpoint: median survival time, dose: 2.0 mg/kg/injection, schedule: Q01DX009 (sc), vehicle: water) 97 % of control; (endpoint: median survival time, dose: 2.0 mg/kg/injection, schedule: Q04DX003 (ip), vehicle: water) 103 % of control and 112 % of control; (endpoint: median survival time, dose: 2.0 mg/kg/injection, schedule: Q08DX002 (ip), vehicle: water) 107 % of control; (endpoint: median survival time, dose: 4.0 mg/kg/injection, schedule: Q01DX001 (ip), vehicle: water) 113 % of control. Further, the T/C is 98 % of control (endpoint: median survival time, dose: 4.0 mg/kg/injection, schedule: Q01DX001 (sc), vehicle: water); 98 % of control (endpoint: median survival time, dose: 4.0 mg/kg/injection, schedule: Q01DX009 (oral), vehicle: water); 97 % of control (endpoint: median survival time, dose: 4.0 mg/kg/injection, schedule: Q01DX009 (sc), vehicle: water); 124 % of control (endpoint: median survival time, dose: 4.0 mg/kg/injection, schedule: Q03HX016 (ip), vehicle: water); 104 % of control (endpoint: median survival time, dose: 4.0 mg/kg/injection, schedule: Q03HX024 (ip), vehicle: water); 124 % of control (endpoint: median survival time, dose: 4.0 mg/kg/injection, schedule: Q04DX003 (ip), vehicle: water). In addition, the T/C was 113 % of control (endpoint: median survival time, dose: 4.0 mg/kg/injection, schedule: Q08DX002 (ip), vehicle: water); 117 % of control (endpoint: median survival time, dose: 8.0 mg/kg/injection, schedule: Q01DX001 (ip), vehicle: water); 98 % of control (endpoint: median survival time, dose: 8.0 mg/kg/injection, schedule: Q01DX001 (sc), vehicle: water); 95 % of control (endpoint: median survival time, dose: 8.0 mg/kg/injection, schedule: Q01DX009 (oral), vehicle: water); 103 % of control (endpoint: median survival time, dose: 8.0 mg/kg/injection, schedule: Q01DX009 (sc), vehicle: water); 124 % of control (endpoint: median survival time, dose: 8.0 mg/kg/injection, schedule: Q08DX002 (ip), vehicle: water). Also, the T/C is 97 % of control (endpoint: median survival time, dose: 16.0 mg/kg/injection, schedule: Q01DX001 (oral), vehicle: water); 97 % of control (endpoint: median survival time, dose: 16.0 mg/kg/injection, schedule: Q01DX001 (sc), vehicle: water); 97 % of control (endpoint: median survival time, dose: 16.0 mg/kg/injection, schedule: Q01DX009 (oral), vehicle: water); 108 % of control (endpoint: median survival time, dose: 16.0 mg/kg/injection, schedule: Q01DX009 (sc), vehicle: water); 124 % of control (endpoint: median survival time, dose: 16.0 mg/kg/injection, schedule: Q04DX003 (ip), vehicle: water); 155 % of control (endpoint: median survival time, dose: 32.0 mg/kg/injection, schedule: Q01DX001 (ip), vehicle: water). In addition, the T/C (endpoint: median survival time, dose: 32.0 mg/kg/injection, schedule: Q01DX001 (oral), vehicle: water) was 96 % of control; the T/C (endpoint: median survival time, dose: 32.0 mg/kg/injection, schedule: Q01DX001 (sc), vehicle: water) was 108 % of control; the T/C (endpoint: median survival time, dose: 32.0 mg/kg/injection, schedule: Q04DX003 (ip), vehicle: water) was 106 % of control; the T/C (endpoint: median survival time, dose: 64.0 mg/kg/injection, schedule: Q01DX001 (oral), vehicle: water) was 103 % of control; the T/C (endpoint: median survival time, dose: 128.0 mg/kg/injection, schedule: Q01DX001 (oral), vehicle: water) was 102 % of control; the T/C (endpoint: median survival time, dose: 256.0 mg/kg/injection, schedule: Q01DX001 (oral), vehicle: water) was 102 % of control.

As for `CCN(CC)C(=O)CSC#N`, the T/C runs as follows: (endpoint: mean survival time, dose: 12.5 mg/kg/injection, schedule: Q01DX001 (ip), vehicle: Klucel (hydroxypropylcellulose) (HPC)) 96 % of control; (endpoint: mean survival time, dose: 25.0 mg/kg/injection, schedule: Q01DX001 (ip), vehicle: Klucel (hydroxypropylcellulose) (HPC)) 100 % of control.

As for `CNNCCCC(=O)NC(C)C`, the T/C (endpoint: mean survival time, dose: 25.0 mg/kg/injection, schedule: Q04DX003 (ip), vehicle: saline) was 105 % of control; the T/C (endpoint: mean survival time, dose: 50.0 mg/kg/injection, schedule: Q04DX003 (ip), vehicle: saline) is 103 % of control; the T/C (endpoint: mean survival time, dose: 100.0 mg/kg/injection, schedule: Q04DX003 (ip), vehicle: saline) was 110 % of control; the T/C (endpoint: mean survival time, dose: 200.0 mg/kg/injection, schedule: Q04DX003 (ip), vehicle: saline) is 112 % of control.
